Data set [1] deals with T1, Human cytochrome P450 2B6dH (Homo sapiens, UniProt P20813). The settings on record: 1 μM P450, 25 °C, 50 mM potassium phosphate pH 7.4, 500 mM NaCl, 500 mM sucrose.
Data set [2] deals with T2, P450 2B4 (Oryctolagus cuniculus, UniProt P00178, H226Y). Put plainly: biochemical.
For data set [3], the target named is T3, Cytochrome P450 2B4dH(H226Y) (Oryctolagus cuniculus, UniProt P00178, H226Y). Put plainly: biochemical.
Another data set concerns 2B6. Particulars: ref [20]; cited from earlier work.
The target in data set [4] is T3, Cytochrome P450 2B4dH(H226Y). The settings on record: for ΔAmax: 2B4dH, 1 μM P450, 25 °C, 50 mM potassium phosphate pH 7.4, 500 mM NaCl, 500 mM sucrose.
Data set [5] deals with T1, Human cytochrome P450 2B6dH. Put plainly: biochemical.
The target in data set [6] is T2, P450 2B4. The settings on record: ratio 2B4/2B6.
For another data set, the target named is P450 2B6 (Homo sapiens, UniProt P20813, D28G/E2A/H23K/H27K/N25S/P24T/R22K/R29K/T26S). Put plainly: biochemical.

Structures are written as SMILES.

Turning to `Clc1ccccc1CN1CCc2sccc2C1` [Ticlopidine, ticlopidine], the ΔAmax is recorded as 0.02 ± 0.001 OU μM^-1 in data set [1] and 0.03 ± 0.008 OU μM^-1 in data set [4]. For the same compound, the affinity at P450 2B4 [2], expressed as Ki, was 0.81 ± 0.1 µM. For the same compound, the Kd (as a rule, the concentration at which binding is half-saturated) in data set [3] was determined as 1.3 ± 0.1 µM. For the same compound, the “suppression of bupropion hydroxylation by 2B6” value in the data set with 2B6 was 90%.

On to `COC(=O)[C@H](c1ccccc1Cl)N1CCc2sccc2C1` [Clopidogrel, clopidogrel], for which the ΔAmax in data set [1] worked out at 0.04 ± 0.005 OU μM^-1; in data set [4], 0.05 ± 0.001 OU μM^-1. The Ki (usually a dissociation constant, usually derived from enzyme kinetics or from competition with a known ligand) on P450 2B4 [2] came to 0.36 ± 0.04 µM; at P450 2B6 it was 0.1 ± 0.01 µM. For the same compound, the values for the Kd in data set [5] and in data set [3] were 0.1 ± 0.07 µM and 0.6 ± 0.06 µM, respectively. For the same compound, the “suppression of bupropion hydroxylation by 2B6” value with 2B6 is listed as 68%. Moreover, in data set [4] (ratio 2B4/2B6), the “fold higher Ks of 2B4 compared with 2B6” value was about 6 fold. Moreover, the “fold higher Ki of 2B4 than 2B6” value on P450 2B4 [6] stood at 4 fold.

The record behind these values is publication PMC3005796 (Biochemistry, 2010).
